# Assay results taken from article PMC12064818, “A general assay platform to study protein pharmacology using ligand-dependent structural dynamics” (Nature Communications, 2025).
# Molecular target: T1, Nano luciferase (NLuc) (Oplophorus gracilirostris, UniProt Q9GV45, A31E/A60N/A81I/F95D/I117V/K70R/L54V/L99Q/M102K/N193R/P142E/Q151K/Q38R/Q45L/V71I/Y165I)
# T1 construct: His tag (inferred from IMAC purification); made in house; host or cells: E. coli
# Experiment: Thermal shift profiles (Thermofluor assay), NLuc
# Assay type: binding
# Parameters: unit of the concentration uncertain
# Conditions: compound 100 (unit uncertain); for Thermofluor NLuc, ATP: ATP (2 mM)
# Procedure: Thermal stabilization of proteins in the presence of the ligands were determined using Thermofluor technique. MicroAmp optical 384-well plates (Applied Biosystems by Life Technologies), ViiA 7 real-time PCR instrument (Applied Biosystems by Life Technologies) and SYPRO Orange (Life Technologies) were used to test the samples. […]. Proteins were added to the 384-well plate first followed by the compounds. Samples were incubated for 10 mins at room temperature and protected from light. SYPRO Orange dye was diluted to 50x from 5000x stock in a PBS buffer, and 4 µL dye was added to the each well using a multi-channel pipette. The plate was sealed with a MicroAmp optical adhesive film, centrifuged at 1500 RPM for 2 min, and then loaded onto the ViiA 7 real–time PCR instrument for fluorescence intensity measurements upon heating the sample from 25 to 95 °C at 1 °C/min increments. Data was exported to excel, fluorescence intensity data and its first derivative were normalized and plotted using GraphPad Prism to determine Tm. See Supplementary Table 3 for additional details.
# Supplementary Figure 6. Comparison of SDR and Thermofluor analysis of […]
# Temperature °C Temperature °C […]
# Supplementary Table 3. Protocol for Thermofluor assay
# Supplementary Table 3: Protocol for Therm ofluor assay
# Sequence Param eter Value Description […]
# 3 Incubation 10 m ins Room tem perature, protected from light
# 4 Dye 10X Sypro Orange dye in PBS added to the sam ple
# 5 Centrifugation 2 m in Centrifuge for 2 m in at 1500 RPM at RT
# 6 Read ViiA7 Read the therm al unfolding of the protein with ViiA7 real-tim e PCR system
# 4 Prepare 50X dye in PBS: 1 μL Sypro Orange 5000X (Life Technologies), 99 μL ddH2O. Add 4 μL to each well Read the m elting tem perature from 25 to 95 °C using ViiA 7 real tim e PCR instrum ent by following the below instructions Perform therm al denaturation in 384-well assay plate
# (i) Place the assay plate into the Applied Biosystem s ViiA7 real-tim e PCR instrum ent and open the ViiA7 RUO software.
# Under Experim ental Properties, select the following param eters: Set up: […] (20 μl), Experim ent type: MELT CURVE, Reagents used to detect target sequence: OTHER, Ram p Speed: […]
# (ii) Select the Define tab on the left, then select the following param eters: Target nam e: TARGET 1, Reporter: ROX, 6 Quencher: NONE, Passive Reference: NONE
# (iii) Select the Assign tab on the left, then perform the following actions: Highlight all 384 wells in the assay plate and check the box next to ‘Target 1’ on the top left of the plate layout. Note: check the ‘Sam ple’ box on the lower left.
# (iv) Select the Run Method tab on the left, then m ake the following changes to the default Melt Curve profile: Delete Step 2 of the default cycle, change run m ethod to “Step and Hold” with a 1:00 tim e, set the following tem peratures: an initial 2:00 hold at 25 °C (4 °C), ram ping up in increm ents of 1 ° C to a final tem perature of 95 °C (with a 2:00 hold), click on all three cam eras to activate fluorescence detection throughout the experim ent, and Select total volum e per well of 20 μl
# (v) Click on the RUN tab to the left to initiate therm al denaturation.
# T1 sequence (Q9GV45 other isoform, or with tags, fused parts or gaps with the stated changes): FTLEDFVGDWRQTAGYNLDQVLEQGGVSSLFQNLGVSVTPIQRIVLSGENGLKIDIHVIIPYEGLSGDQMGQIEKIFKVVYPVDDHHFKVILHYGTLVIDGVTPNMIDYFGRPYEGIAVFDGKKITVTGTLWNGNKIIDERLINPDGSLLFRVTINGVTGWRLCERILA
smiles,measurement,setting,value
COc1ccc(NC(=O)C2CCN(C(=O)c3ncn4c3COC(c3ccccc3)C4)CC2)cc1Cl (stereo not drawn) [NCGC 00449919],"Thermofluor NLuc, No ATP",20.000 °C,1
same,"Thermofluor NLuc, ATP",20.000 °C,0.908
same,"Thermofluor NLuc, No ATP",20.993 °C,0.737
same,"Thermofluor NLuc, ATP",20.993 °C,0.958
same,"Thermofluor NLuc, No ATP",21.987 °C,0.665
same,"Thermofluor NLuc, ATP",21.987 °C,0.992
same,"Thermofluor NLuc, No ATP",22.980 °C,0.636
same,"Thermofluor NLuc, ATP",22.980 °C,1
same,"Thermofluor NLuc, No ATP",23.974 °C,0.59
same,"Thermofluor NLuc, ATP",23.974 °C,0.981
same,"Thermofluor NLuc, No ATP",24.967 °C,0.577
same,"Thermofluor NLuc, ATP",24.967 °C,0.945
same,"Thermofluor NLuc, No ATP",25.960 °C,0.551
same,"Thermofluor NLuc, ATP",25.960 °C,0.901
same,"Thermofluor NLuc, No ATP",26.954 °C,0.532
same,"Thermofluor NLuc, ATP",26.954 °C,0.858
same,"Thermofluor NLuc, No ATP",27.947 °C,0.492
same,"Thermofluor NLuc, ATP",27.947 °C,0.821
same,"Thermofluor NLuc, No ATP",28.940 °C,0.484
same,"Thermofluor NLuc, ATP",28.940 °C,0.79
same,"Thermofluor NLuc, No ATP",29.934 °C,0.475
same,"Thermofluor NLuc, ATP",29.934 °C,0.766
same,"Thermofluor NLuc, No ATP",30.927 °C,0.424
same,"Thermofluor NLuc, ATP",30.927 °C,0.748
same,"Thermofluor NLuc, No ATP",31.921 °C,0.447
same,"Thermofluor NLuc, ATP",31.921 °C,0.735
same,"Thermofluor NLuc, No ATP",32.914 °C,0.416
same,"Thermofluor NLuc, ATP",32.914 °C,0.726
same,"Thermofluor NLuc, No ATP",33.907 °C,0.402
same,"Thermofluor NLuc, ATP",33.907 °C,0.72
same,"Thermofluor NLuc, No ATP",34.901 °C,0.393
same,"Thermofluor NLuc, ATP",34.901 °C,0.716
same,"Thermofluor NLuc, No ATP",35.894 °C,0.367
same,"Thermofluor NLuc, ATP",35.894 °C,0.71
same,"Thermofluor NLuc, No ATP",36.887 °C,0.355
same,"Thermofluor NLuc, ATP",36.887 °C,0.703
same,"Thermofluor NLuc, No ATP",37.881 °C,0.332
same,"Thermofluor NLuc, ATP",37.881 °C,0.693
same,"Thermofluor NLuc, No ATP",38.874 °C,0.332
same,"Thermofluor NLuc, ATP",38.874 °C,0.683
same,"Thermofluor NLuc, No ATP",39.868 °C,0.308
same,"Thermofluor NLuc, ATP",39.868 °C,0.672
same,"Thermofluor NLuc, No ATP",40.861 °C,0.311
same,"Thermofluor NLuc, ATP",40.861 °C,0.661
same,"Thermofluor NLuc, No ATP",41.854 °C,0.286
same,"Thermofluor NLuc, ATP",41.854 °C,0.65
same,"Thermofluor NLuc, No ATP",42.848 °C,0.281
same,"Thermofluor NLuc, ATP",42.848 °C,0.638
same,"Thermofluor NLuc, No ATP",43.841 °C,0.279
same,"Thermofluor NLuc, ATP",43.841 °C,0.624
same,"Thermofluor NLuc, No ATP",44.835 °C,0.247
same,"Thermofluor NLuc, ATP",44.835 °C,0.61
same,"Thermofluor NLuc, No ATP",45.828 °C,0.259
same,"Thermofluor NLuc, ATP",45.828 °C,0.594
same,"Thermofluor NLuc, No ATP",46.821 °C,0.247
same,"Thermofluor NLuc, ATP",46.821 °C,0.579
same,"Thermofluor NLuc, No ATP",47.815 °C,0.245
same,"Thermofluor NLuc, ATP",47.815 °C,0.563
same,"Thermofluor NLuc, No ATP",48.808 °C,0.238
same,"Thermofluor NLuc, ATP",48.808 °C,0.547
same,"Thermofluor NLuc, No ATP",50.795 °C,0.24
same,"Thermofluor NLuc, ATP",50.795 °C,0.504
same,"Thermofluor NLuc, No ATP",51.788 °C,0.229
same,"Thermofluor NLuc, ATP",51.788 °C,0.47
same,"Thermofluor NLuc, No ATP",52.782 °C,0.227
same,"Thermofluor NLuc, ATP",52.782 °C,0.422
same,"Thermofluor NLuc, No ATP",53.775 °C,0.227
same,"Thermofluor NLuc, ATP",53.775 °C,0.36
same,"Thermofluor NLuc, No ATP",54.768 °C,0.248
same,"Thermofluor NLuc, ATP",54.768 °C,0.285
same,"Thermofluor NLuc, No ATP",55.762 °C,0.239
same,"Thermofluor NLuc, ATP",55.762 °C,0.202
same,"Thermofluor NLuc, No ATP",56.755 °C,0.264
same,"Thermofluor NLuc, ATP",56.755 °C,0.122
same,"Thermofluor NLuc, No ATP",57.748 °C,0.317
same,"Thermofluor NLuc, ATP",57.748 °C,0.055
same,"Thermofluor NLuc, No ATP",58.742 °C,0.38
same,"Thermofluor NLuc, ATP",58.742 °C,0.012
same,"Thermofluor NLuc, No ATP",59.735 °C,0.412
same,"Thermofluor NLuc, ATP",59.735 °C,0
same,"Thermofluor NLuc, No ATP",60.729 °C,0.472
same,"Thermofluor NLuc, ATP",60.729 °C,0.021
same,"Thermofluor NLuc, No ATP",61.722 °C,0.524
same,"Thermofluor NLuc, ATP",61.722 °C,0.072
same,"Thermofluor NLuc, No ATP",62.715 °C,0.52
same,"Thermofluor NLuc, ATP",62.715 °C,0.145
same,"Thermofluor NLuc, No ATP",63.709 °C,0.568
same,"Thermofluor NLuc, ATP",63.709 °C,0.233
same,"Thermofluor NLuc, No ATP",65.695 °C,0.566
same,"Thermofluor NLuc, ATP",65.695 °C,0.416
same,"Thermofluor NLuc, No ATP",66.689 °C,0.551
same,"Thermofluor NLuc, ATP",66.689 °C,0.499
same,"Thermofluor NLuc, No ATP",68.676 °C,0.541
same,"Thermofluor NLuc, ATP",68.676 °C,0.632
same,"Thermofluor NLuc, No ATP",69.669 °C,0.515
same,"Thermofluor NLuc, ATP",69.669 °C,0.682
same,"Thermofluor NLuc, No ATP",70.662 °C,0.497
same,"Thermofluor NLuc, ATP",70.662 °C,0.723
same,"Thermofluor NLuc, No ATP",71.656 °C,0.488
same,"Thermofluor NLuc, ATP",71.656 °C,0.755
same,"Thermofluor NLuc, No ATP",72.649 °C,0.477
same,"Thermofluor NLuc, ATP",72.649 °C,0.781
same,"Thermofluor NLuc, No ATP",73.643 °C,0.428
same,"Thermofluor NLuc, ATP",73.643 °C,0.8
same,"Thermofluor NLuc, No ATP",74.636 °C,0.405
same,"Thermofluor NLuc, ATP",74.636 °C,0.812
same,"Thermofluor NLuc, No ATP",75.629 °C,0.392
same,"Thermofluor NLuc, ATP",75.629 °C,0.819
